The values below are quoted from earlier work in patent publication US20080015265A1, “Methods of treating obesity using satiety factors” (priority 2006, published 2008).

Where no end group is shown, it is not given here.

For series [1] the following is noted: rats and/or mice.
For series [2] the following is noted: human subjects; peripheral or intravenous administration.

As to “pancreatic peptide (APLEPVYPGDNATPEQMAQYAADLRRYINMLTRPRY; ends and bridges not checked; UniProt P01298 30-65, looked up) [PP, 36-amino acid peptide of the NPY family produced in the pancreatic islets]”, in series [1], the “food intake (feeding)” value is “reduces food intake”; the weight gain entry is “reduces food intake and weight gain”. In addition, in series [2], the food intake result was “sustained decrease in appetite and food intake”; the hunger / appetite entry is on record as “sustained decrease in appetite”.

B1: adiponectin (protein, UniProt Q15848 19-244, looked up)
Adiponectin: ETTTQGPGVLLPLPKGACTGWMAGIPGHPGHNGAPGRDGRDGTPGEKGEKGDPGLIGPKGDIGETGVPGAEGPRGFPGIQGRKGEPGEGAYVYRSAFSVGLETYVTIPNMPIRFTKIFYNQQNHYDGSTGKFHCNIPGLYYFAYHITVYMKDVKVSLFKKDKAMLFTYDQYQENNVDQASGSVLLHLEVGDQVWLQVYGEGERNGLYADNDNDSTFTGFLLYHDTN
notes: non-gut peptide satiety factor
On to B1, for which, in the series with hepatocyte, the “sensitivity of the hepatocyte to insulin” value is “increase the sensitivity of the hepatocyte to insulin”.
